# In PubChem BioAssay AID2060506 (Molecular Pharmacology Branch, DTP, NCI, 2025):
# pIC50: −log10 of the molar value. Where “and” joins values, the source holds several entries; their conditions need not be identical. Identical values can stand only once.
# System: 598228-144-R-J1-PDC complex spheroid viability
# Experiment: Anticancer human tumor 598228-144-R-J1-PDC patient-derived serous endometrial adenocarcinoma cell line growth inhibition [GQUAD]
# Details: for viability, T/C: stronger effect = lower value
# Description: DNA G-quadruplex Stabilizer Agents in Combinations in Complex Spheroids
# A high-throughput screen of multi-cell type tumor spheroids was designed to identify active combinations of DNA G-quadruplex stabilizer agents and targeted small molecules. Complex spheroids include a stromal component modeled by human endothelial cells (HUVEC) and fibroblasts modeled by human mesenchymal stem cells (MSCs). The concentration ranges selected for each drug and investigational agent were based upon clinically achievable concentrations if the clinical Cmax of the agent was known.
# Compounds. The drugs and investigational agents: pidnarulex (CX-5461; NSC782164), APTO-253 (NSC789042), BRACO-19 (NSC847499), peposertib (NSC802822), ceralasertib (NSC780249), elimusertib (NSC800525), camonsertib (NSC841442), AZD-1390 (NSC803789), olaparib (NSC753686), talazoparib (NSC767125), ART-558 (NSC835418), sotorasib (NSC818433), MRTX-1133 (NSC836407), SN-38 (NSC673596), topotecan (NSC609699), etoposide (NSC141540), doxorubicin (NSC123127), gemcitabine (NSC613327), 5-fluorouracil (NSC19893), paclitaxel (NSC125973), vemurafenib (NSC761431), panobinostat (NSC761190), R-306465 (JNJ-16241199; NSC773264), adavosertib (NSC754352), TP-3654 (NSC805149), carboplatin (NSC241240), KSQ-4279 (NSC840948), and staurosporine (NSC755774) were obtained from the National Cancer Institute (NCI) Developmental Therapeutics Program Chemical Repository (34). The FDA-approved anticancer drug set is available from the NCI Developmental Therapeutics Program. […] The stock solutions were prepared in dimethyl sulfoxide (DMSO, Sigma-Aldrich, St. Louis, MO, cat. D2650) at 800-fold the tested concentration and stored at -70 degrees C prior to their use. All drugs and investigational agents were tested over a range starting from a high concentration at or near the clinical Cmax and decreasing in half-log increments. If the clinical Cmax for an agent had not been determined, the highest concentration tested was 10 microM.
# 2.3 Cell Culture. All cells were maintained in an incubator at 37 degrees C and 5% CO2 with 95% humidity. The PDC lines were cultured according to standard operating procedures established by the NCI PDMR. All PDCs were thawed and cultured in Matrigel-coated flasks prepared with a working solution of 1X Ham's F-12 nutrient mix, without supplementation (Invitrogen, cat. 11765054), 100 U/mL penicillin-streptomycin (Invitrogen, cat. 15140122), and 2.5% Matrigel (Corning Inc., cat. 354248) for the first three passages. The 857933-349-R-J2-PDC line was cultured in 6C/Colon 1B media, which includes advanced DMEM/F-12 (Thermo Fisher Scientific, cat. 12634028), 10 mM HEPES (Thermo Fisher Scientific, cat. 15630080), 1X GlutaMAX supplement (Thermo Fisher Scientific, cat. 35050061), 0.1 mg/mL primocin (InvivoGen, cat. ant-pm-2), 10% defined fetal bovine serum, heat inactivated (HyClone Laboratories Inc., cat. SH30070.03HI), 50% L-WRN conditioned media (ATCC, cat. CRL-3276), 1.25 mM N-Acetyl-L-cysteine (Sigma-Aldrich, cat. A9165), 10 mM nicotinamide (Sigma-Aldrich, cat. N0636), 1X B-27 supplement (Thermo Fisher Scientific, cat. 17504044), 1X N-2 supplement (Thermo Fisher Scientific, cat. 17502048), 10 microM Y-27632 dihydrochloride (Tocris Bioscience, cat. 1254), and 50 ng/mL human EGF recombinant protein (Thermo Fisher Scientific, cat. PHG0311). The 485176-168-R4-J1-PDC line was cultured in Panc media, which includes all 6C/Colon 1B media components plus 100 ng/mL human FGF-10 (Thermo Fisher Scientific, cat. 100-26), 500 nM SB-431542 (Selleckchem, cat. S1067), and gastrin (Tocris, cat. 3006).
# […]
# 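Further: spheroids exposed to the agents for one week before reading.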
# 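Wherever viability, T/C is given: percent of vehicle DMSO control viability so 100% = untreated growth.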
smiles,measurement,setting,value
COc1cccc2c1C(=O)c1c(O)c3c(c(O)c1C2=O)CC(O)(C(=O)CO)CC3OC1CC(N)C(O)C(C)O1 (stereo unspecified) + Cc1[nH]c2ccc(F)cc2c1-c1nc2c3cccnc3c3ncccc3c2[nH]1,pIC50,"curve of first compound, second compound 0.0316 µM",6.18
same,pIC50,"curve of first compound, second compound 0.1 µM",6.05
same,pIC50,"curve of first compound, second compound 0.316 µM",5.98
same,pIC50,"curve of first compound, second compound 1 µM",6.38
same,pIC50,"curve of first compound, second compound 3.16 µM",> 7.50
same,pIC50,"curve of first compound, second compound 10 µM",6.19
same,"viability, T/C","second compound 0.0316 µM, first compound 0.0316 µM",97.1%
same,"viability, T/C","second compound 0.0316 µM, first compound 0.1 µM",81.6%
same,"viability, T/C","second compound 0.0316 µM, first compound 0.316 µM",69.8%
same,"viability, T/C","second compound 0.0316 µM, first compound 1 µM",42.8%
same,"viability, T/C","second compound 0.0316 µM, first compound 3.16 µM",5.14%
same,"viability, T/C","second compound 0.0316 µM, first compound 10 µM",0.27%
same,"viability, T/C","second compound 0.1 µM, first compound 0.0316 µM",88.7%
same,"viability, T/C","second compound 0.1 µM, first compound 0.1 µM",77.2%
same,"viability, T/C","second compound 0.1 µM, first compound 0.316 µM",78.6%
same,"viability, T/C","second compound 0.1 µM, first compound 1 µM",47%
same,"viability, T/C","second compound 0.1 µM, first compound 3.16 µM",2.77%
same,"viability, T/C","second compound 0.1 µM, first compound 10 µM",0.42%
same,"viability, T/C","second compound 0.316 µM, first compound 0.0316 µM",84.7%
same,"viability, T/C","second compound 0.316 µM, first compound 0.1 µM",72.8%
same,"viability, T/C","second compound 0.316 µM, first compound 0.316 µM",74.7%
same,"viability, T/C","second compound 0.316 µM, first compound 1 µM",51.9%
same,"viability, T/C","second compound 0.316 µM, first compound 3.16 µM",3.76%
same,"viability, T/C","second compound 0.316 µM, first compound 10 µM",1.38%
same,"viability, T/C","second compound 1 µM, first compound 0.0316 µM",67.3%
same,"viability, T/C","second compound 1 µM, first compound 0.1 µM",48.8%
same,"viability, T/C","second compound 1 µM, first compound 0.316 µM",54.3%
same,"viability, T/C","second compound 1 µM, first compound 1 µM",34.7%
same,"viability, T/C","second compound 1 µM, first compound 3.16 µM",4.19%
same,"viability, T/C","second compound 1 µM, first compound 10 µM",1.39%
same,"viability, T/C","second compound 3.16 µM, first compound 0.0316 µM",38.9%
same,"viability, T/C","second compound 3.16 µM, first compound 0.1 µM",36.8%
same,"viability, T/C","second compound 3.16 µM, first compound 0.316 µM",31.8%
same,"viability, T/C","second compound 3.16 µM, first compound 1 µM",25.4%
same,"viability, T/C","second compound 3.16 µM, first compound 3.16 µM",1.9%
same,"viability, T/C","second compound 3.16 µM, first compound 10 µM",1.11%
same,"viability, T/C","second compound 10 µM, first compound 0.0316 µM",57.1%
same,"viability, T/C","second compound 10 µM, first compound 0.1 µM",72.3%
same,"viability, T/C","second compound 10 µM, first compound 0.316 µM",49%
same,"viability, T/C","second compound 10 µM, first compound 1 µM",46.1%
same,"viability, T/C","second compound 10 µM, first compound 3.16 µM",5.49%
same,"viability, T/C","second compound 10 µM, first compound 10 µM",0.68%
COc1ccc([C@@H](O)c2cc(-c3ncnc4cc(N5CCOCC5)ccc34)c(F)cc2Cl)nn1,"viability, T/C",compound 0.0316 µM,97.8% and 102% and 84.3%
same,"viability, T/C",compound 0.1 µM,90% and 101% and 85.3%
same,"viability, T/C",compound 0.316 µM,89.9% and 67.4% and 82.6%
same,"viability, T/C",compound 1 µM,74.7% and 62.1% and 82.8%
same,"viability, T/C",compound 3.16 µM,52.1% and 42.8% and 49.9%
same,"viability, T/C",compound 10 µM,32.1% and 30% and 30.5%
same,pIC50,curve of compound,5.44 and 5.74 and 5.50
O=C(NO)c1cnc(N2CCN(S(=O)(=O)c3ccc4ccccc4c3)CC2)nc1,"viability, T/C",compound 0.0316 µM,112% and 98.7% and 110%
same,"viability, T/C",compound 0.1 µM,49.4% and 40.7% and 59.1%
same,"viability, T/C",compound 0.316 µM,26.3% and 24.7% and 34%
same,"viability, T/C",compound 1 µM,0.49% and 0.43% and 0.75%
same,"viability, T/C",compound 3.16 µM,0.37% and 0.43% and 0.25%
same,"viability, T/C",compound 10 µM,0.35% and 0.28% and 0.23%
same,pIC50,curve of compound,6.97 and 7.06 and 6.83
